Series [1] concerns Staphylococcus aureus JCM8702 (a clinically isolated strain of MRSA). In words: Protective effect against experimental systemic MRSA infection in mice. The conditions noted are these: dose 10 mg/kg, once subcutaneously one hour after infection. Format: in vivo, ICR-MCH mice. On the procedure: The experiments were carried out by intra-peritoneally administering 0.5 mg/0.5 ml/mouse of cyclophosphamide to ICR-MCH mice [4-week-old male mice (available from Nippon CLEA Co., Ltd.), 8 animals per group] 3 days before the infection and then infecting the animals through intra-peritoneal administration of 0.5 ml each of a liquid containing 2×10^4 /ml of Staphylococcus aureus JCM8702 strain supplemented with 5% mucin. One hour after the infection, 10 mg/kg of Vancomycin HCl (available from Shionogi & Co., Ltd.) and 0.2 ml/mouse of the antibiotic WAP-8294AX (containing 10 mg/kg, 2.5 mg/kg, 1.0 mg/kg or 0.5 mg/kg of the antibiotic) was once subcutaneously injected to mice. To control groups, there was subcutaneously administered 0.2 ml each of physiological saline.

Series [2] has as its system Staphylococcus aureus No. 1 (a clinically isolated strain of MRSA). The description is as above. The conditions noted are these: dose 10 mg/kg, once subcutaneously one hour after infection. It counts as in vivo, ICR-MCH mice. How it is done: The experiments were carried out by intra-peritoneally administering 0.5 mg/0.5 ml/mouse of cyclophosphamide to ICR-MCH mice [4-week-old male mice (available from Nippon CLEA Co., Ltd.), 8 animals per group] 3 days before the infection and then infecting the animals through intra-peritoneal administration of 0.5 ml each of a liquid containing 2×10^6 /ml of Staphylococcus aureus No. 1 strain supplemented with 5% mucin. One hour after the infection, 10 mg/kg of Vancomycin HCl (available from Shionogi & Co., Ltd.) and 0.2 ml/mouse of the antibiotic WAP-8294A (containing 10 mg/kg, 5 mg/kg, 2.5 mg/kg, 1.0 mg/kg, 0.5 mg/kg, 0.25 mg/kg, 0.1 mg/kg or 0.05 mg/kg of the antibiotic) was once subcutaneously injected to mice. To control groups, there was subcutaneously administered 0.2 ml each of physiological saline.

Series [3] has as its system Pseudomonas aeruginosa (ATCC 9027). Description: MIC, broth dilution, sensitive bouillon medium. It counts as cell-based. On the procedure: (§1) The determination of the minimum inhibitory concentration (MIC) was carried out by broth dilution method which made use of a sensitive bouillon medium (available from Eiken Chemical Co., Ltd.).
(In general: Dilution methods test growth across graded concentrations, often in twofold steps.)

Series [4] concerns Streptococcus pyogenes (ATCC 19615). Description: MIC, broth dilution, sensitive bouillon medium. It counts as cell-based. On the procedure:
as §1

Series [5] has as its system Candida albicans (TIMM 0239). Description: MIC, broth dilution, sensitive bouillon medium. It counts as cell-based. How it is done: as §1
The test system of series [6] is Aspergillus fumigatus (IAM 2004). Description: MIC, broth dilution, sensitive bouillon medium. It counts as cell-based. How it is done:
as §1

Series [7] relates to Staphylococcus aureus No. 11 (MRSA clinically isolated strain). In words: MIC, broth dilution, sensitive bouillon medium. Format: cell-based. On the procedure:
as §1

In series [8] the test system is Escherichia coli (ATCC 25922). In words: MIC, broth dilution, sensitive bouillon medium. It counts as cell-based. How it is done:
as §1

Series [9] has as its system Bacillus subtilis (ATCC 6633). Description: MIC, broth dilution, sensitive bouillon medium. It counts as cell-based. How it is done: as §1
In series [10] the test system is Staphylococcus epidermidis (ATCC 12228). Description: MIC, broth dilution, sensitive bouillon medium. Format: cell-based. On the procedure:
as §1

The test system of series [11] is Staphylococcus aureus No. 1 (MRSA clinically isolated strain). Description: MIC, broth dilution, sensitive bouillon medium. It counts as cell-based. On the procedure:
as §1

Series [12] deals with Staphylococcus aureus (ATCC 25923). Description: MIC, broth dilution, sensitive bouillon medium. It counts as cell-based. How it is done: as §1
In series [13] the test system is Staphylococcus aureus 371 R (MRSA clinically isolated strain). In words: MIC, broth dilution, sensitive bouillon medium. It counts as cell-based. How it is done:
as §1

Series [14] relates to Gram-positive bacteria including MRSA (methicillin-resistant Staphylococcus aureus). Description: Antibacterial activity, summary of Table 4. It counts as cell-based. The conditions noted are these: for increase of antibacterial activity when 10% bovine serum is added to the culture medium: relative to culture medium without serum; for antibacterial activity against Gram-positive bacteria including MRSA: sensitive bouillon medium, Table 4. How it is done:
as §1

A further series in a line: Solubility. Format: physicochemical. The conditions noted are these: solvents.
[15] abbreviates: Addition of Serum: 10% (bovine serum).

Converted amounts (≈) assume the structure as drawn. Numbered stars: 1 amine (or outer) side, 2 acyl side, 3 side chain; on linkers, the order of the positions; unused ones are H or OH. Bridge positions count the residues as written; N and C are the ends. Square brackets hold non-standard residues; d marks the D form. Peptide text beside a SMILES is read from it. ξ: configuration not given here. ξAsn(3ξ-OH) = NC(=O)C(O)C(N)C(=O)O; X2 = CC(C)CCCC(CC(=O)[*:1])O[*:2]; NMeF = CN[CH](Cc1ccccc1)C(=O)O; X1 = CCCCCC(CC(=O)[*:1])O[*:2]; NMeV = CN[CH](C(=O)O)C(C)C; Orn = NCCC[CH](N)C(=O)O

This note sets out measurements from patent publication US5648455A, “Antibiotic WAP-8294A, method for preparing the same and antibacterial composition” (Wakamoto Pharmaceutical Co., Ltd., priority 1994, dated 1997).

With `CN[C@H](CC(C)C)C(=O)N[C@H]1C(=O)N[C@@H](CC(N)=O)C(=O)N[C@H]2C(=O)N[C@H]3C(=O)N[C@H](C(=O)N[C@H](C(=O)O)c4cc(O)cc(O)c4-c4cc3ccc4O)[C@H](O)c3ccc(c(Cl)c3)Oc3cc2cc(c3O[C@@H]2O[C@H](CO)[C@@H](O)[C@H](O)[C@H]2O[C@H]2C[C@](C)(N)[C@H](O)[C@H](C)O2)Oc2ccc(cc2Cl)[C@H]1O` [Vancomycin], the “Survival/No. of Test Animals” value in [1] and in series [2] was 5/8 throughout.

As usually defined, the MIC is the lowest concentration found to suppress growth. A high value points to weaker potency. Consider `CCCCCC1CC(=O)NC(CO)C(=O)NC(C(O)C(N)=O)C(=O)NC(CO)C(=O)NCC(=O)N(C)C(Cc2ccccc2)C(=O)NC(CC(C)C)C(=O)NC(CCCN)C(=O)NC(CCC(=O)O)C(=O)NC(CC(N)=O)C(=O)NC(Cc2c[nH]c3ccccc23)C(=O)NC(CCCN)C(=O)N(C)C(C(C)C)C(=O)O1` (stereo not shown) [WAP-8294A1] (S[ξAsn(3ξ-OH)]SG[NMeF]L[Orn]ENW[Orn][NMeV]; linker N-C via X1; configuration not given here), for which the minimal inhibitory concentration (MIC) in [3] (setting [15]) was greater than 100 µg/mL; in series [3] (Addition of Serum: None) it was greater than 100 µg/mL; in series [4] (setting [15]) it was 25 µg/mL (≈ 16.1 µM); in series [4] (Addition of Serum: None), 6.25 µg/mL (≈ 4.04 µM); in [5] (setting [15]), greater than 100 µg/mL; in series [5] (Addition of Serum: None) it was greater than 100 µg/mL. For the same compound, the MIC is greater than 100 µg/mL in series [6] (setting [15]); greater than 100 µg/mL in series [6] (Addition of Serum: None); less than 0.10 µg/mL in [7] (setting [15]); 0.39 µg/mL (≈ 0.252 µM) in [7] (Addition of Serum: None); greater than 100 µg/mL in [8] (setting [15]); greater than 100 µg/mL in series [8] (Addition of Serum: None). Further, the minimal inhibitory concentration (MIC) in series [9] (setting [15]) is less than 0.10 µg/mL; in [9] (Addition of Serum: None), 0.39 µg/mL (≈ 0.252 µM); in series [10] (setting [15]), less than 0.10 µg/mL; in series [10] (Addition of Serum: None) it was 0.39 µg/mL (≈ 0.252 µM); in series [11] (setting [15]), less than 0.10 µg/mL; in series [11] (Addition of Serum: None), 0.39 µg/mL (≈ 0.252 µM). In addition, the minimal inhibitory concentration (MIC) is less than 0.10 µg/mL in series [12] (setting [15]), 0.39 µg/mL (≈ 0.252 µM) in series [12] (Addition of Serum: None), less than 0.10 µg/mL in series [13] (setting [15]) and 0.39 µg/mL (≈ 0.252 µM) in series [13] (Addition of Serum: None). The “increase of antibacterial activity when 10% bovine serum is added to the culture medium” value in [14] was “not less than 8 times”. Also, the “antibacterial activity against Gram-positive bacteria including MRSA” value in [14] is “strong antibacterial activity”. Moreover, the Solubility entry in the series “Solubility” was “soluble in water, methanol, n-butanol, dimethylformamide and dimethylsulfoxide and insoluble in acetone, ethyl acetate and chloroform”.

With `CC(C)CCCC1CC(=O)NC(CO)C(=O)NC(C(O)C(N)=O)C(=O)NC(CO)C(=O)NCC(=O)N(C)C(Cc2ccccc2)C(=O)NC(CC(C)C)C(=O)NC(CCCN)C(=O)NC(CCC(=O)O)C(=O)NC(CC(N)=O)C(=O)NC(Cc2c[nH]c3ccccc23)C(=O)NC(CCCN)C(=O)N(C)C(C(C)C)C(=O)O1` (stereo not shown) [WAP-8294A2] (S[ξAsn(3ξ-OH)]SG[NMeF]L[Orn]ENW[Orn][NMeV]; linker N-C via X2; configuration not given here), the minimum inhibitory concentration (MIC) in series [3] (setting [15]) was greater than 100 µg/mL; in series [3] (Addition of Serum: None), greater than 100 µg/mL; in series [4] (setting [15]) it was 25 µg/mL (≈ 16 µM); in series [4] (Addition of Serum: None), 6.25 µg/mL (≈ 4 µM); in series [5] (setting [15]), greater than 100 µg/mL; in [5] (Addition of Serum: None) it was greater than 100 µg/mL. Moreover, the MIC is greater than 100 µg/mL in series [6] (setting [15]); greater than 100 µg/mL in series [6] (Addition of Serum: None); less than 0.10 µg/mL in [7] (setting [15]); 0.78 µg/mL (≈ 0.499 µM) in series [7] (Addition of Serum: None); greater than 100 µg/mL in [8] (setting [15]); greater than 100 µg/mL in series [8] (Addition of Serum: None). The MIC was less than 0.10 µg/mL in series [9] (setting [15]); 0.78 µg/mL (≈ 0.499 µM) in series [9] (Addition of Serum: None); less than 0.10 µg/mL in series [10] (setting [15]); 0.78 µg/mL (≈ 0.499 µM) in series [10] (Addition of Serum: None); less than 0.10 µg/mL in series [11] (setting [15]); 0.78 µg/mL (≈ 0.499 µM) in [11] (Addition of Serum: None). Besides, the MIC in series [12] (setting [15]) was less than 0.10 µg/mL; in series [12] (Addition of Serum: None) it was 0.78 µg/mL (≈ 0.499 µM); in series [13] (setting [15]), less than 0.10 µg/mL; in series [13] (Addition of Serum: None), 0.78 µg/mL (≈ 0.499 µM). Also, in [14], the “increase of antibacterial activity when 10% bovine serum is added to the culture medium” value is “not less than 8 times”. In addition, the “antibacterial activity against Gram-positive bacteria including MRSA” value in [14] is given as “strong antibacterial activity”. Besides, in the series “Solubility”, the Solubility entry is “soluble in water, methanol, n-butanol, dimethylformamide and dimethylsulfoxide and insoluble in acetone, ethyl acetate and chloroform”.
